# Source: patent US20250092039A1, “GLUTARIMIDE-CONTAINING PAN-KRAS-MUTANT DEGRADER COMPOUNDS AND USES THEREOF” (Tiger Biotherapeutics Inc., priority 2022, published 2025)
# Like-named read-outs stand apart in the source and are kept apart here.
# Tests used:
# [1] = system: SW620 cells; experiment: 3D cell growth inhibition of SW620 cells carrying endogenous KRAS G12V mutation (CellTiter-Glo 3D, GI50); format: cell-based; conditions: Homo sapiens, SW-620, 144 h, read-out: SW620 3D cell growth GI50
# How it was run: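 SW620 cells (endogenous KRAS G12V) grown in 3D were dosed next day with compound from DMSO stocks at various concentrations, then incubated 6 days at 37° C.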
# [2] = molecular target: KRAS G12V (Homo sapiens (Human), UniProt P01116, G12V); experiment: KRAS G12V degradation in SW620 cells (Western blot, DC50); format: cell-based; conditions: 24 hours
# How it was run: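 SW620 cells (homozygous KRAS G12V) were treated with compound for 24 hours at 37° C. KRAS in lysates was measured by Western blot with fluorescent secondary antibodies and expressed relative to DMSO vehicle (100%). DC50 came from a four-parameter variable-slope dose-response fit.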
# [3] = molecular target: KRAS-G12V/RAF1 (Homo sapiens (Human), UniProt P01116, G12V); experiment: KRAS/RAF1 binding inhibition assay (AlphaScreen)
# How it was run: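 Binding of GppNHp-loaded KRAS G12V to the RAF1 RBD was measured by AlphaScreen with test compound present in 2% DMSO (final), 60 min incubation at 4° C. Signals were converted to % inhibition versus DMSO, and IC50 was obtained by variable-slope nonlinear regression.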
# Sequence of KRAS G12V (P01116-2 other isoform, or with tags, fused parts or gaps G12V): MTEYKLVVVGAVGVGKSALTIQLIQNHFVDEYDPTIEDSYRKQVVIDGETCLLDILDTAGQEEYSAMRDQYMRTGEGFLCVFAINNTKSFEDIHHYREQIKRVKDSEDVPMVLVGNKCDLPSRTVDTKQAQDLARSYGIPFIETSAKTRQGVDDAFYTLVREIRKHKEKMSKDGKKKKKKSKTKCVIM
# Sequence of KRAS-G12V/RAF1 (P01116-2 other isoform, or with tags, fused parts or gaps G12V): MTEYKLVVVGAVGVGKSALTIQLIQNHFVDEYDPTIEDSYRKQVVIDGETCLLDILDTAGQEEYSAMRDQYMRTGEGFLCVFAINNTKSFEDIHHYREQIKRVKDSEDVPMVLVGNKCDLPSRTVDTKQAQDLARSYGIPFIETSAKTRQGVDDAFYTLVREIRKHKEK
Compound,"GI50 ([1]; SW620 cells, 6 days) [nM]",DC50 [2] [nM],IC50 [3] [nM],GI50 [1] [nM]
"CCc1cccc2cc(O)cc(-c3ncc4c(N(C)C5CC5)nc(OCC5(CN6CCC(CN7CCN(c8ccc9c(c8)CN([C@H]8CCC(=O)NC8=O)C9=O)CC7)CC6)CC5)nc4c3F)c12 [Compound 15, (S)-3-(5-(4-((1-((1-(((4-(cyclopropyl(methyl)amino)-7-(8-ethyl-3-hydroxynaphthalen-1-yl)-8-fluoropyrido[4,3-d]pyrimidin-2-yl)oxy)methyl)cyclopropyl)methyl)piperidin-4-yl)methyl)piperazin-1-yl)-1-oxoisoindolin-2-yl)piperidine-2,6-dione]",> 100,> 100,> 200,–
"C[C@@]1(O)CCCN(c2nc(OCC3(CN4CCC5(CC4)CC(CN4CCN(c6ccc7c(c6)CN([C@H]6CCC(=O)NC6=O)C7=O)CC4)C5)CC3)nc3c(F)c(-c4cc(N)cc(Cl)c4C(F)(F)F)ncc23)C1 [Compound 135, (S)-3-(5-(4-((7-((1-(((7-(5-amino-3-chloro-2-(trifluoromethyl)phenyl)-8-fluoro-4-((R)-3-hydroxy-3-methylpiperidin-1-yl)pyrido[4,3-d]pyrimidin-2-yl)oxy)methyl)cyclopropyl)methyl)-7-azaspiro[3.5]nonan-2-yl)methyl)piperazin-1-yl)-1-oxoisoindolin-2-yl)piperidine-2,6-dione]",< 10,1 to 10,20 to 200,–
"CCc1c(F)ccc2cc(O)cc(-c3ncc4c(N5CCC[C@@H](O)CC5)nc(OCC5(CN6CCC(CN7CCN(c8ccc9c(c8)CN([C@H]8CCC(=O)NC8=O)C9=O)CC7)CC6)CC5)nc4c3F)c12 [Compound 117, (S)-3-(5-(4-((1-((1-(((7-(8-ethyl-7-fluoro-3-hydroxynaphthalen-1-yl)-8-fluoro-4-((R)-4-hydroxyazepan-1-yl)pyrido[4,3-d]pyrimidin-2-yl)oxy)methyl)cyclopropyl)methyl)piperidin-4-yl)methyl)piperazin-1-yl)-1-oxoisoindolin-2-yl)piperidine-2,6-dione]",> 100,1 to 10,> 200,–
"CCc1c(F)ccc2cc(O)cc(-c3ncc4c(N5CCC[C@@](C)(O)C5)nc(OCC5(CN6CCC7(CC6)CC(F)(CN6CCN(c8ccc(C(=O)N[C@H]9CCC(=O)NC9=O)c(F)c8)CC6)C7)CC5)nc4c3F)c12 [Compound 180, N-((S)-2,6-dioxopiperidin-3-yl)-4-(4-((7-((1-(((7-(8-ethyl-7-fluoro-3-hydroxynaphthalen-1-yl)-8-fluoro-4-((R)-3-hydroxy-3-methylpiperidin-1-yl)pyrido[4,3-d]pyrimidin-2-yl)oxy)methyl)cyclopropyl)methyl)-2-fluoro-7-azaspiro[3.5]nonan-2-yl)methyl)piperazin-1-yl)-2-fluorobenzamide]",10 to 100,> 100,20 to 200,–
"C#Cc1c(F)ccc2cc(N)cc(-c3ncc4c(N5CCC[C@@](C)(O)C5)nc(OCC5(CN6CCC(CN7CCN(c8ccc9c(c8)CN([C@H]8CCC(=O)NC8=O)C9=O)CC7)CC6)CC5)nc4c3F)c12 [Compound 118, (S)-3-(5-(4-((1-((1-(((7-(3-amino-8-ethynyl-7-fluoronaphthalen-1-yl)-8-fluoro-4-((R)-3-hydroxy-3-methylpiperidin-1-yl)pyrido[4,3-d]pyrimidin-2-yl)oxy)methyl)cyclopropyl)methyl)piperidin-4-yl)methyl)piperazin-1-yl)-1-oxoisoindolin-2-yl)piperidine-2,6-dione]",> 100,> 100,> 200,–
"C#Cc1c(F)ccc2cc(N)cc(-c3ncc4c(N5CCC[C@@](C)(O)C5)nc(OCC5(CN6CCC7(CC6)CC(CN6CCN(c8ccc9c(c8)CN([C@H]8CCC(=O)NC8=O)C9=O)CC6)C7)CC5)nc4c3F)c12 [Compound 119, (S)-3-(5-(4-((7-((1-(((7-(3-amino-8-ethynyl-7-fluoronaphthalen-1-yl)-8-fluoro-4-((R)-3-hydroxy-3-methylpiperidin-1-yl)pyrido[4,3-d]pyrimidin-2-yl)oxy)methyl)cyclopropyl)methyl)-7-azaspiro[3.5]nonan-2-yl)methyl)piperazin-1-yl)-1-oxoisoindolin-2-yl)piperidine-2,6-dione]",> 100,> 100,> 200,–
"CCc1c(F)ccc2cc(O)cc(-c3ncc4c(N5CCC[C@@](C)(O)C5)nc(OCC5(CN6CCN(CC7CN(c8ccc9c(c8)CN(C8CCC(=O)NC8=O)C9=O)C7)CC6)CC5)nc4c3F)c12 (stereo partly drawn) [Compound 133, 3-[5-[3-[[4-[[1-[[7-(8-ethyl-7-fluoro-3-hydroxy-1-naphthyl)-8-fluoro-4-[(3R)-3-hydroxy-3-methyl-1-piperidyl]pyrido[4,3-d]pyrimidin-2-yl]oxymethyl]cyclopropyl]methyl]piperazin-1-yl]methyl]azetidin-1-yl]-1-oxo-isoindolin-2-yl]piperidine-2,6-dione]",–,< 1,20 to 200,< 10

# Now from value to compound, other results behind:
"GI50 ([1]; SW620 cells, 6 days) [nM]",DC50 [2] [nM],IC50 [3] [nM],Compound,GI50 [1] [nM]
< 10,< 1,20 to 200,"CCc1c(F)ccc2cc(O)cc(-c3ncc4c(N5CCC[C@@](C)(O)C5)nc(OCC5(CN6CC(N7CCC8(CC7)CN(c7ccc9c(c7)CN(C7CCC(=O)NC7=O)C9=O)C8)C6)CC5)nc4c3F)c12 (stereo partly drawn) [Compound 152, 3-(5-(7-(1-((1-(((7-(8-ethyl-7-fluoro-3-hydroxynaphthalen-1-yl)-8-fluoro-4-((R)-3-hydroxy-3-methylpiperidin-1-yl)pyrido[4,3-d]pyrimidin-2-yl)oxy)methyl)cyclopropyl)methyl)azetidin-3-yl)-2,7-diazaspiro[3.5]nonan-2-yl)-1-oxoisoindolin-2-yl)piperidine-2,6-dione]",–
< 10,1 to 10,20 to 200,"CCc1c(F)ccc2cc(O)cc(-c3ncc4c(N5CCC[C@@](C)(O)C5)nc(OCC5(CN6CCC7(CC6)CCN(C6CN(c8ccc9c(c8)CN(C8CCC(=O)NC8=O)C9=O)C6)CC7)CC5)nc4c3F)c12 (stereo partly drawn) [Compound 164, 3-(5-(3-(9-((1-(((7-(8-ethyl-7-fluoro-3-hydroxynaphthalen-1-yl)-8-fluoro-4-((R)-3-hydroxy-3-methylpiperidin-1-yl)pyrido[4,3-d]pyrimidin-2-yl)oxy)methyl)cyclopropyl)methyl)-3,9-diazaspiro[5.5]undecan-3-yl)azetidin-1-yl)-1-oxoisoindolin-2-yl)piperidine-2,6-dione]",–
10 to 100,< 1,< 20,"CCc1c(F)ccc2cc(O)cc(-c3ncc4c(N5CCC[C@@](C)(O)C5)nc(OCC5(CN6CC7(CCC(N8CCN(c9ccc%10c(c9)CN([C@H]9CCC(=O)NC9=O)C%10=O)CC8)CC7)C6)CC5)nc4c3F)c12 [Compound 136, (S)-3-(5-(4-(2-((1-(((7-(8-ethyl-7-fluoro-3-hydroxynaphthalen-1-yl)-8-fluoro-4-((R)-3-hydroxy-3-methylpiperidin-1-yl)pyrido[4,3-d]pyrimidin-2-yl)oxy)methyl)cyclopropyl)methyl)-2-azaspiro[3.5]nonan-7-yl)piperazin-1-yl)-1-oxoisoindolin-2-yl)piperidine-2,6-dione]",–
< 10,< 1,20 to 200,"CCc1cccc2cc(O)cc(-c3ncc4c(N5CCC[C@@](C)(O)C5)nc(OCC5(CN6CCC7(CC6)CCN(c6ccc8c(c6)CN(C6CCC(=O)NC6=O)C8=O)CC7)CC5)nc4c3F)c12 (stereo partly drawn) [Compound 140, 3-(5-(9-((1-(((7-(8-ethyl-3-hydroxynaphthalen-1-yl)-8-fluoro-4-((R)-3-hydroxy-3-methylpiperidin-1-yl)pyrido[4,3-d]pyrimidin-2-yl)oxy)methyl)cyclopropyl)methyl)-3,9-diazaspiro[5.5]undecan-3-yl)-1-oxoisoindolin-2-yl)piperidine-2,6-dione]",–
< 10,< 1,< 20,"CCc1c(F)ccc2cc(O)cc(-c3ncc4c(N5CCC[C@@](C)(O)C5)nc(OCC5(CN6CC(N7CCC(N8CCN(c9ccc%10c(c9)CN([C@H]9CCC(=O)NC9=O)C%10=O)CC8)CC7)C6)CC5)nc4c3F)c12 [Compound 139, (S)-3-(5-(4-(1-(1-((1-(((7-(8-ethyl-7-fluoro-3-hydroxynaphthalen-1-yl)-8-fluoro-4-((R)-3-hydroxy-3-methylpiperidin-1-yl)pyrido[4,3-d]pyrimidin-2-yl)oxy)methyl)cyclopropyl)methyl)azetidin-3-yl)piperidin-4-yl)piperazin-1-yl)-1-oxoisoindolin-2-yl)piperidine-2,6-dione]",–
< 10,< 1,20 to 200,"CCc1c(F)ccc2cc(O)cc(-c3ncc4c(N5CCC[C@@](C)(O)C5)nc(OCC5(CN6CCC7(CC6)CC(C)(CN6CCN(c8ccc9c(c8)CN([C@H]8CCC(=O)NC8=O)C9=O)CC6)C7)CC5)nc4c3F)c12 [Compound 150, (3S)-3-[5-[4-[[7-[[1-[[7-(8-ethyl-7-fluoro-3-hydroxy-1-naphthyl)-8-fluoro-4-[(3R)-3-hydroxy-3-methyl-1-piperidyl]pyrido[4,3-d]pyrimidin-2-yl]oxymethyl]cyclopropyl]methyl]-2-methyl-7-azaspiro[3.5]nonan-2-yl]methyl]piperazin-1-yl]-1-oxo-isoindolin-2-yl]piperidine-2,6-dione]",–
